Experimental data from publication PMC5321753, “Enhanced expression of ADCY1 underlies aberrant neuronal signalling and behaviour in a syndromic autism model” (Nature Communications, 2017).

Tests used:
S6K1 = assay: Immunoblot of phosphorylated and total S6K1 in hippocampus after i.p. injection; format: in vivo, mouse
Procedure: Hippocampal tissues were collected from 3-month-(+/−10 days) old mice. […] The primers used for Adcy1 were […] (forward) and […] (reverse). The protein levels in hippocampal tissues collected from mice were determined by western blot using anti-ADCY1 (Sigma, Cat # SAB4500146-100UG, 1:1,000 dilution), anti-p-ERK1/2 (Cell Signaling, Cat # 9101L, 1:1,000 dilution), anti-pAkt (Cell Signaling, Cat # 9271, 1:1,000 dilution), anti-pS6K1 (Cell Signaling, Cat # 9204L for the detection of phosphorylation at Thr421/Ser424, Cat # 9234S for the detection of phosphorylation at Thr389, 1:1,000 dilution), anti-ERK1/2 (Cell Signaling, Cat # 9102L, 1:1,000 dilution), anti-Akt (Cell Signaling, Cat # 9272S, 1:1,000 dilution), anti-S6K1 (Cell Signaling, Cat # 9202L, 1:1,000 dilution) and anti-β-actin antibody (Sigma, Cat # A5441; 1:5,000 dilution). Following incubations with infrared fluorescence (IRDye)-conjugated secondary antibodies (1:5,000, LI-COR Biosciences, Cat # 926–32211 and 926–68070), signals were detected using the Odyssey system (LI-COR Biosciences). The un-cropped western blots are shown in Supplementary Fig. 10.
(§1) NB001 was dissolved in water to give a 25 mM stock solution. The stock was diluted in saline and IP injected into mice at 1 mg kg^−1 body weight. In all cases, the drug was administered 1 h before testing. Control mice were treated similarly but injected with saline.

WT and Fmr1 KO mice [1] = assay: Light/dark test; format: in vivo, mouse
Procedure: Light/dark test was examined as described in our previous study. Light/dark test was performed using 3-month (+/−10 days) old mouse, which was first placed in the dark half of the chamber (Coulbourn Instruments). After 1 min of habituation, the trap door was opened and the mouse was allowed to move freely between the two chambers for 5 min. The time spent in each chamber and the number of entries into the lit side were recorded.
as §1
To inhibit phosphodiesterase (PDE), rolipram was dissolved in 10% kolliphore and IP injected into mice at 0.5 or 0.03 mg kg^−1. The use of the higher dose (that is, 0.5 mg kg^−1) was to ensure sufficient inhibition of PDE[44][45]. […] Rolipram- or vehicle (10% kolliphore)-injected mice were examined with light/dark test and AGS 30 min after drug administration.

WT and Fmr1 KO mice [2] = assay: 3-chamber social interaction test; format: in vivo, mouse; conditions: NB001 1 mg kg^-1 IP, 1 h before testing; relative to WT level
Procedure: Social interaction was determined by the 3-chamber test as described. Mouse at 3 months (+/−10 days) of age was placed in a 3-chamber social interaction box and allowed to explore freely for 5 min. […] During the test, mouse was placed in the center chamber and the entrances to the side chambers were blocked. A novel stimulus mouse in a wire enclosure and an empty wire enclosure were placed in one of the side chambers, respectively. The entrances were then opened and the activity of the test mouse was recorded. Time spent in each of the chambers and time spent sniffing the stranger mouse enclosure versus the empty enclosure were recorded.
as §1

[3] = Mouse liver microsome stability assay; format: in vitro ADME; conditions: incubation with liver microsomes, 0-60 min
Procedure: (§2) Following IP injection of NB001 (20 mg kg^−1), mice were killed at various time points, and 0.5–0.8 ml of blood was drawn from a cardiac puncture into a 1 ml syringe, which was pre-treated with NaHeparin. The blood was collected into 1.5 ml microfuge tubes coated with NaHeparin and put on ice immediately. Samples were centrifuged at 15,000 r.p.m. for 15 min. Blood plasma was collected from the upper layer, leaving the blood cells in the tube. The plasma was frozen at −80 °C for later analysis. Brains were taken out and weighed immediately. Brains were frozen at −80 °C for later preparation and analysis. The samples were subjected to LC/MS/MS with Turbo-Ionspray Interface used in the positive ion-mode (Pharmacokinetics Core, University of Michigan). Mouse liver microsome stability assay was performed by the Pharmacokinetics Core at University of Michigan.

[4] = NB001 pharmacokinetic study, plasma and brain levels by LC/MS/MS; format: in vivo, mouse
Procedure: as §2

mice [5] = assay: NB001 toxicology study (body weight, organ weight, histology); format: in vivo, mouse
Procedure: (§3) Mice at 3 months (+/−10 days) of age were IP injected with NB001 twice daily at 50 mg kg^−1 for 2 weeks. Clinical observations were performed twice daily and body weights were measured on various days during the dosing regimen. At the end of the dosing period, mice were killed and blood was collected for clinical pathology (Diagnostic Center for Population and Animal Health, Michigan State University). The liver and kidney were collected and fixed in 10% buffered formalin (INVIVO facility at Michigan State University).

mice [6] = assay: Clinical panel blood test after 14 days of NB001; format: in vivo, mouse
Procedure: as §3

neuropathic pain = system: neuropathic pain; design: method as in PMID 21228397; conditions: systemic administration; cited from earlier work
[7] = IP injection, 20 mg kg^-1, mice
[8] = NB001 50 mg kg^-1 IP twice a day for 14 days
[9] = NB001 50 mg kg^-1 twice a day for 14 days
[10] = blood, NB001 50 mg per kg twice per day for 14 days
[11] = blood, NB001 50 mg per kg twice per day for 14 days, mean ± SEM

For `Nc1ncnc2c1ncn2CCNCCCCCO` [NB001, 5-{[2-(6-amino-9H-purin-9-yl)ethyl]amino}-1-pentanol], the “elevated level of pS6K1 (at Thr421/Ser424) in the hippocampus” value (S6K1; Fmr1 KO mice, NB001 1 mg kg^-1 IP, 1 h after injection, relative to WT levels) was “normalized”, the “phosphorylation of S6K1 in WT mice” value (S6K1; WT mice, NB001 1 mg kg^-1 IP, hippocampus) was “did not cause measurable changes” and the “level of pS6K1 at PI3K target site Thr389” value (S6K1; hippocampus, acute NB001 1 mg kg^-1 IP, 1 h after injection) was “not affected”. For the same compound, the “transition between the light and dark chambers, NB001-injected Fmr1 KO versus WT mice” value (WT and Fmr1 KO mice [1]; NB001 1 mg kg^-1 IP, 1 h before testing) was “comparable”, the “time spent in the lit chamber, difference between groups” value (WT and Fmr1 KO mice [1]; WT and Fmr1 KO mice, vehicle or 1 mg per kg NB001) was “not significant” and the “reduced social interaction in Fmr1 KO mice” value (WT and Fmr1 KO mice [2]) was “normalized”. For the same compound, the “stability in mouse liver microsome assay” value [3] was “stable and resistant to degradation”, the absorption to plasma [4, 7] was “absorbed to the blood stream” and the distribution to brain [4, 7] was “distributed to the brain”. The blood-brain barrier crossing ([4]; conclusion from plasma/brain levels and ref 40) was “can cross the blood–brain barrier”, the body weight (mice [5]; [8]) was “did not affect” and the “weight of major organs including heart/lung, kidney and liver” value (mice [5]; [8]) was “did not affect”. The “histopathology in kidney and liver” value (mice [5]; NB001 50 mg kg^-1 IP twice a day for 14 days, H&E staining) was “no significant sign of histopathology”, the “side effects following two weeks of high dose administration” value (mice [5]; [9]) was “no significant side effects” and the “concentrations of various electrolytes and levels of the main toxicity-related proteins (such as aminotransferases)” value (mice [6]; [9]) was “no effect”. For the same compound, the ALT (mice [6]; alanine aminotransferase, blood, NB001 50 mg per kg twice per day for 14 days, mean ± SEM) was 18.50 ±0.96 U/L, the ALP (mice [6]; alkaline phosphatase, blood, NB001 50 mg per kg twice per day for 14 days, mean ± SEM) was 62.75 ±4.48 U/L and the AST (mice [6]; aspartate aminotransferase, blood, NB001 50 mg per kg twice per day for 14 days, mean ± SEM) was 32.50 ±1.55 U/L. The “Hemolysis Chem” value (mice [6]; [10]) was “Normal”, the “Icterus Chem” value (mice [6]; [10]) was “Normal” and the “Lipemia Chem” value (mice [6]; [10]) was “Normal”. The Albumin (mice [6]; [11]) was 2.65 ± 0.13 g/dL, the Amylase (mice [6]; [11]) was 586.50 ±29.02 U/L and the “Anion Gap” value (mice [6]; [11]) was 29.50 ± 2.36 mmol/L. It also gave a Calcium (mice [6]; [11]) of 8.83 ± 0.20 mg/dL, a Chol (mice [6]; [11]) of 100.00 ± 5.96 mg/dL and a Glucose (mice [6]; [11]) of 216.50 ± 8.50 mg/dL. For the same compound, the Magnesium (mice [6]; [11]) was 2.60 ± 0.11 mg/dL, the “Na/K Ratio” value (mice [6]; [11]) was 32.00 ±1.47 and the Osmolarity (mice [6]; [11]) was 321.00 ±4.00 mOs/L. For the same compound, the Phosphorus (mice [6]; [11]) was 6.50 ± 0.24 mg/dL, the Potassium (mice [6]; [11]) was 4.73 ± 0.22 mmol/L and the Sodium (mice [6]; [11]) was 150.50 ± 1.50 mmol/L. For the same compound, the “Total CO2” value (mice [6]; [11]) was 13.50 ± 1.04 mmol/L, the “Urea Nitrogen” value (mice [6]; [11]) was 24.50 ± 0.87 mg/dL and the neuropathic pain (neuropathic pain) was “attenuates”.
